Results from ChEMBL document CHEMBL4219265, “Piperlongumine derivative, CG-06, inhibits STAT3 activity by direct binding to STAT3 and regulating the reactive oxygen species in DU145 prostate carcinoma cells” (Bioorg Med Chem Lett, 2018).

What was measured:
DU-145 [1] = experiment: Cell cycle arrest in human DU145 cells assessed as accumulation at G2/M phase at 5 uM after 12 hrs by flow cytometry (reference value: 18.12%); format: functional
[2] = biological target: T1, Signal transducer and activator of transcription 3 (Homo sapiens, UniProt P40763); experiment: Stabilization of STAT3 in human DU145 cell lysates by measuring ratio of STAT3 protein level to GAPDH protein level at 50 uM incubated for 1 hr in absence of pronase by Western blot analysis (reference value: 1)
[3] = biological target: T1, Signal transducer and activator of transcription 3; experiment: Inhibition of STAT3-induced ERK1/2 phosphorylation in human DU145 cells assessed as ratio of phosphorylated ERK1/2 protein level to GAPDH protein level at 5 uM after 6 hrs by Western blot analysis (reference value: 1); format: cell-based
DU-145 [4] = experiment: Cell cycle arrest in human DU145 cells assessed as accumulation at G0/G1 phase at 5 uM after 48 hrs by flow cytometry (reference value: 24.07%); format: functional
DU-145 [5] = experiment: Effect on total STAT3 protein level in human DU145 cells assessed as ratio of STAT3 protein level to GAPDH protein level at 5 uM after 1 hr by Western blot analysis (reference value: 1); format: ADME, cell-based; details: du-145, 1 h
[6] = biological target: T1, Signal transducer and activator of transcription 3; experiment: Binding affinity to STAT3 in human DU145 cell lysates assessed as reduction in pronase-induced STAT3 digestion by measuring ratio of STAT3 protein level to GAPDH protein level incubated for 1 hr followed by 0.05% pronase addition for 10 mins by Western blot analysis
DU-145 [7] = experiment: Effect on total STAT3 protein level in human DU145 cells assessed as ratio of STAT3 protein level to GAPDH protein level at 0.1 uM after 24 hrs by Western blot analysis (reference value: 1); format: ADME, cell-based; details: du-145, 24 h
[8] = biological target: T1, Signal transducer and activator of transcription 3; experiment: Binding affinity to STAT3 in human DU145 cell lysates assessed as reduction in pronase-induced STAT3 digestion by measuring ratio of STAT3 protein level to GAPDH protein level at 100 uM incubated for 1 hr followed by 0.05% pronase addition for 10 mins by Western blot analysis (reference value: 1)
DU-145 [9] = experiment: Effect on total STAT3 protein level in human DU145 cells assessed as ratio of ERK1/2 protein level to GAPDH protein level at 5 uM preincubated with NAC for 1 hr followed by compound addition for 1 hr by Western blot analysis (reference value: 1); format: ADME, cell-based; details: du-145, 1 h
[10] = biological target: T1, Signal transducer and activator of transcription 3; experiment: Inhibition of STAT3 phosphorylation at Tyr705 residues in human DU145 cells assessed as ratio of phosphorylated STAT3 protein level to GAPDH protein level at 0.5 uM after 24 hrs by Western blot analysis (reference value: 1); format: cell-based
[11] = biological target: T1, Signal transducer and activator of transcription 3; experiment: Inhibition of IL-6-mediated STAT3 phosphorylation in human LNCAP cells assessed as ratio of phosphorylated STAT3 protein level to GAPDH protein level at 5 uM preincubated for 12 hrs followed by IL-6 stimulation for 30 mins by Western blot analysis (reference value: 7.5); format: cell-based
DU-145 [12] = experiment: Induction of apoptosis in human DU145 cells at 5 uM after 12 hrs by flow cytometry (reference value: 0.61%); format: functional
[13] = biological target: T1, Signal transducer and activator of transcription 3; experiment: Binding affinity to STAT3 in human DU145 cell lysates assessed as reduction in pronase-induced STAT3 digestion by measuring ratio of STAT3 protein level to GAPDH protein level at 50 uM incubated for 1 hr followed by 0.005% pronase addition for 10 mins by Western blot analysis (reference value: 0.9)
[14] = biological target: T1, Signal transducer and activator of transcription 3; experiment: Inhibition of STAT3 (unknown origin) expressed in human HCT116 cells after 24 hrs by dual-luciferase reporter gene assay; format: cell-based
[15] = biological target: T1, Signal transducer and activator of transcription 3; experiment: Binding affinity to STAT3 in human DU145 cell lysates assessed as reduction in pronase-induced STAT3 digestion by measuring ratio of STAT3 protein level to GAPDH protein level at 50 uM incubated for 1 hr followed by 0.01% pronase addition for 10 mins by Western blot analysis (reference value: 0.7)
DU-145 [16] = experiment: Effect on total STAT3 protein level in human DU145 cells assessed as ratio of STAT3 protein level to GAPDH protein level at 0.5 uM after 24 hrs by Western blot analysis (reference value: 1); format: ADME, cell-based; details: du-145, 24 h
[17] = biological target: T1, Signal transducer and activator of transcription 3; experiment: Inhibition of STAT3-induced ERK1/2 phosphorylation in human DU145 cells assessed as ratio of phosphorylated ERK1/2 protein level to GAPDH protein level at 5 uM after 3 hrs by Western blot analysis (reference value: 1); format: cell-based
[18] = biological target: T1, Signal transducer and activator of transcription 3; experiment: Inhibition of STAT3 in human DU145 cells assessed as ratio of cyclin A protein level to tubulin protein level at 5 uM after 48 hrs by Western blot analysis (reference value: 1); format: cell-based
DU-145 [19] = experiment: Induction of apoptosis in human DU145 cells at 5 uM after 24 hrs by flow cytometry (reference value: 0.61%); format: functional
DU-145 [20] = experiment: Effect on total STAT3 protein level in human DU145 cells assessed as ratio of STAT3 protein level to GAPDH protein level at 5 uM after 3 hrs by Western blot analysis (reference value: 1); format: ADME, cell-based; details: du-145, 3 h
[21] = biological target: T1, Signal transducer and activator of transcription 3; experiment: Inhibition of STAT3 phosphorylation at Tyr705 residues in human DU145 cells assessed as ratio of phosphorylated STAT3 protein level to GAPDH protein level at 5 uM after 6 hrs by Western blot analysis (reference value: 1); format: cell-based
[22] = biological target: T1, Signal transducer and activator of transcription 3; experiment: Inhibition of STAT3 phosphorylation at Tyr705 residues in human DU145 cells assessed as ratio of phosphorylated STAT3 protein level to GAPDH protein level at 1 uM after 24 hrs by Western blot analysis (reference value: 1); format: cell-based
DU-145 [23] = experiment: Effect on total STAT3 protein level in human DU145 cells assessed as ratio of STAT3 protein level to GAPDH protein level at 5 uM after 24 hrs by Western blot analysis (reference value: 1); format: ADME, cell-based; details: du-145, 24 h
[24] = biological target: T1, Signal transducer and activator of transcription 3; experiment: Inhibition of STAT3-induced ERK1/2 phosphorylation in human DU145 cells assessed as ratio of phosphorylated ERK1/2 protein level to GAPDH protein level at 5 uM after 12 hrs by Western blot analysis (reference value: 1); format: cell-based
[25] = biological target: T1, Signal transducer and activator of transcription 3; experiment: Inhibition of STAT3 phosphorylation at Tyr705 residues in human DU145 cells assessed as ratio of phosphorylated STAT3 protein level to GAPDH protein level at 0.1 uM after 24 hrs by Western blot analysis (reference value: 1); format: cell-based
DU-145 [26] = experiment: Cell cycle arrest in human DU145 cells assessed as accumulation at G0/G1 phase at 5 uM after 24 hrs by flow cytometry (reference value: 24.07%); format: functional
LNCaP = experiment: Effect on total STAT3 protein level in human LNCAP cells assessed as ratio of STAT3 protein level to GAPDH protein level at 5 uM after 12 hrs by Western blot analysis (reference value: 1); format: ADME, cell-based
[27] = biological target: T1, Signal transducer and activator of transcription 3; experiment: Inhibition of STAT3-induced ERK1/2 phosphorylation in human DU145 cells assessed as ratio of phosphorylated ERK1/2 protein level to GAPDH protein level at 5 uM after 0.5 hrs by Western blot analysis (reference value: 1); format: cell-based

T1 sequence (P40763 whole entry): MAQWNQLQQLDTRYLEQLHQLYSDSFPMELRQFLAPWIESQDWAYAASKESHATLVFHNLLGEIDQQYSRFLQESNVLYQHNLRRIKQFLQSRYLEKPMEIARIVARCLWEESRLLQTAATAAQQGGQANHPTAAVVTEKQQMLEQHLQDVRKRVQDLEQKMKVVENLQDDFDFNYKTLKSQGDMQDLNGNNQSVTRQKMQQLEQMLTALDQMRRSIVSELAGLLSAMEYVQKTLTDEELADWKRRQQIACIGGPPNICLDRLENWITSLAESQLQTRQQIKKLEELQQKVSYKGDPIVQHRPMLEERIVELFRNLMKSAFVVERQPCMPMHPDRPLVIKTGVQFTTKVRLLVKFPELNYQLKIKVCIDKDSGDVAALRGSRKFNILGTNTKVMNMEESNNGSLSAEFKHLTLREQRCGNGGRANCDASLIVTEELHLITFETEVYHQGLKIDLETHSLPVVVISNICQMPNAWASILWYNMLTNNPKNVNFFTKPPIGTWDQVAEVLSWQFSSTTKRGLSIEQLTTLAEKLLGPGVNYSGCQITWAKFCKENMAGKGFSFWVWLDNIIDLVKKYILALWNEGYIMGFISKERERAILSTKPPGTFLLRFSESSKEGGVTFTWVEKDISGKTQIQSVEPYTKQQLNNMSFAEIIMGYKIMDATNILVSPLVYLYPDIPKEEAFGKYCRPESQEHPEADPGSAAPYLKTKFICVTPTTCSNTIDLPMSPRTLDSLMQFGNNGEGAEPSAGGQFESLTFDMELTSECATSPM

C=C(C)C(=O)N(Cc1ccc(Br)cc1)C(=O)/C=C/c1cc(OC)c(OC)c(OC)c1
Activity (DU-145 [1]): 21.05%
Ratio [2]: 1
Ratio [3]: 2.2
Activity (DU-145 [4]): 26.59%
Ratio (DU-145 [5]): 1
Activity [6]: Dose-dependent effect
Ratio (DU-145 [7]): 1.1
Ratio [8]: 2.3
Ratio (DU-145 [9]): 0.7
Ratio [10]: 0.7
Ratio [11]: 1.6
Activity (DU-145 [12]): 0.65%
Ratio [13]: 0.8
IC50 [14]: 10 µM
inhibition [14]: Dose-dependent effect
Ratio [15]: 0.6
Ratio (DU-145 [16]): 1.1
Ratio [17]: 2
Ratio [18]: 0.6
Activity (DU-145 [19]): 0.72%
Ratio (DU-145 [20]): 1
Ratio [21]: 0.2
Ratio [22]: 0.6
Ratio (DU-145 [23]): 0.7
Ratio [24]: 2.3
Ratio [25]: 0.9
Activity (DU-145 [26]): 34.79%
Ratio (LNCaP): 1.2
Ratio [27]: 1.6
